Where “and” joins values, the source holds several entries; their conditions need not be identical. Identical values can stand only once.
Tests used:
[1] = test system: patients with MDD and an inadequate response to an SSRI or SNRI; assay: HAMD-17 total score, adjunctive pimavanserin in MDD (Study ACP-103-042); assay type: in vivo, human; settings: for Response Rate: 50% or greater reduction on HAMD-17
From the text: “Hamilton Depression Scale 17-item (HAMD-17)” is a multiple item questionnaire used to provide an indication of depression, and is known to those skilled in the art. The questionnaire is designed for adults to rate the severity of depression by probing mood, feelings of guilt, suicide ideation, insomnia, work and interests, agitation or retardation, anxiety, weight loss, and somatic symptoms. Each item on the questionnaire is scored on a 3 or 5 point scale, depending on the item, and the total score is compared to the corresponding descriptor. A score of 0-7 is considered to be normal. Scores of 14 or higher indicate moderate, severe, or very severe depression. Assessment time is estimated at 20 minutes. […] Key endpoints were change from baseline to the end of each stage for the HAMD-17 total score and SDS score. The study consisted of an 8- to 21-day screening period, a 10-week double-blind treatment period, and a safety follow up period of up to 30 days. Screening assessments consisted of the SAFER Interview ([…] al, Harv Rev Psychiatry. 2013; 21(5):269-74), which included the MADRS, CGI-S, and MGH ATRQ. […] All patients continued on their SSRI or SNRI at a stable dose for the duration of the study. […] Inadequate treatment response was determined through the administration of the MGH ATRQ administered during the SAFER interview. […] Clinic visits occurred weekly from Weeks 1 through 10. The MADRS was administered at screening and baseline. The HAMD-17, SDS, CGI, and KSS were administered at baseline and weekly during the study. Other endpoints such as the SF-12 were administered at baseline and Weeks 5 and 10. Treatment response was defined as a reduction of 50% from baseline for the HAMD-17 total score, and remission was defined as a HAMD-17 total score […] The determination of the subject's status and eligibility for randomization in Stage 2 was made in a double-blind manner.

[2] = target: serotonin transporter (Homo sapiens, UniProt P31645); assay: Receptor profile: affinity (Ki) at SERT; assay type: binding; settings: data on file
Sequence of serotonin transporter (P31645 whole entry): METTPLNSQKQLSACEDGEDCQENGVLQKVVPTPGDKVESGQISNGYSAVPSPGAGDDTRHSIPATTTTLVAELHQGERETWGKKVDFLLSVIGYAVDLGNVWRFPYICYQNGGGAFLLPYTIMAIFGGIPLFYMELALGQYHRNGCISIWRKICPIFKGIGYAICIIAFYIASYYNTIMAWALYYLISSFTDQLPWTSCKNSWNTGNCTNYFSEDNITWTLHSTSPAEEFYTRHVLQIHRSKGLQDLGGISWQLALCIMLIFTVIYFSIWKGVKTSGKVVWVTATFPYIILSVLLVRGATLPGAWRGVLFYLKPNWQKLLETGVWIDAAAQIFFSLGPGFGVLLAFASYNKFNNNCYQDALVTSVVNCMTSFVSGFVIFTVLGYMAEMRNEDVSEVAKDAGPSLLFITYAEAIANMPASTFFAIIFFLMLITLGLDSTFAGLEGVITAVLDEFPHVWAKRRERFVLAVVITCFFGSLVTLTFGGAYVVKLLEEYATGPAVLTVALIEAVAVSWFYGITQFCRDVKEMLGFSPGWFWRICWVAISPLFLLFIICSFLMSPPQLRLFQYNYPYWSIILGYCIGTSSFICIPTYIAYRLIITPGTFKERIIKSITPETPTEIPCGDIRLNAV

[3] = Stage 1, subgroup baseline anxiety/somatization subscale score ≥7
[4] = Stage 2, subgroup baseline anxiety/somatization subscale score ≥7

Compound: CC(C)COc1ccc(CNC(=O)N(Cc2ccc(F)cc2)C2CCN(C)CC2)cc1 [pimavanserin, N-(4-Fluorophenylmethyl)-N-(1-methylpiperidin-4-yl)-N′-(4-(2-methylpropyloxy)phenylmethyl)carbamide]
- NNT for remission ([1]; Stage 1): 8.1
- early improvement (reduction from baseline in HAMD-17 total score of 20% or more) vs placebo ([1]; Stage 1): early improvement at week 1 was observed
- response and remission rates vs placebo ([1]; Stage 1, Week 2 through Week 5): significantly (p<0.05) greater
- HAMD-17 total score LSmean (SE) change from baseline to Week 5 ([1]; Stage 1, 34 mg QD + SSRI/SNRI): −11.5 (0.94)
- Remission Rate ([1]; Stage 1, 34 mg QD + SSRI/SNRI): 23.5%
- HAMD-17 total score LSmean (SE) change from baseline to Week 5 ([1]; Stage 1, 34 mg QD + SSRI/SNRI, listed as Pimavanserin): −11.5
- Response Rate ([1]; Stage 1, 34 mg QD + SSRI/SNRI): 52.9%
- NNT for response ([1]; Stage 1, response = reduction of 50% from baseline HAMD-17 total score): 3.6
- HAMD-17 total score Diff in LSM (SE) vs placebo [1, 3]: −6.6 (1.64)
- HAMD-17 total score effect size (Cohen's d) [1, 3]: 0.940
- HAMD-17 total score LSM (SE) Change from Baseline to Week 5 ([1]; Stage 1, subgroup baseline anxiety/somatization subscale score ≥7, 34 mg QD + SSRI/SNRI): −14.1 (1.39)
- HAMD-17 total score effect size (Cohen's d) ([1]; Stage 1 Week 5, 34 mg QD + SSRI/SNRI): 0.626 and ~0.6
- HAMD-17 total score effect size (Cohen's d) ([1]; Stage 1 Week 5, 34 mg QD + SSRI/SNRI, listed as Pimavanserin): 0.626
- HAMD-17 total score LSM change from baseline to Week 5 ([1]; Stage 2 (placebo non-responders re-randomized), 34 mg QD + SSRI/SNRI): −2.8
- HAMD-17 Cohen's d ([1]; Stage 2, 34 mg QD + SSRI/SNRI): −0.107
- HAMD-17 difference between pimavanserin and placebo (delta) ([1]; Stage 2, 34 mg QD + SSRI/SNRI): 0.5
- Remission Rate ([1]; Stage 2, 34 mg QD + SSRI/SNRI): 3.4%
- Response Rate ([1]; Stage 2, 34 mg QD + SSRI/SNRI): 6.9%
- HAMD-17 total score Diff in LSM (SE) vs placebo [1, 4]: 0.9 (1.84)
- HAMD-17 total score effect size (Cohen's d) [1, 4]: −0.173
- HAMD-17 total score LSM (SE) Change from Baseline to Week 5 ([1]; Stage 2, subgroup baseline anxiety/somatization subscale score ≥7, 34 mg QD + SSRI/SNRI): −3.4 (1.25)
- HAMD-17 effect size, treatment difference in LSmean change from baseline to Week 10 ([1]; continuous treatment for 10 weeks in Stages 1 and 2, 34 mg QD + SSRI/SNRI): 0.497
- HAMD-17 total LSmean difference [standard error] pimavanserin vs placebo ([1]; overall (weighted Stage 1 and Stage 2), 34 mg QD + SSRI/SNRI): -1.7 (0.85)
- Ki [2]: > 1000 nM

Reference: patent US20220016101A1 (ACADIA Pharmaceuticals Inc., priority 2018, published 2022)
